Reference: patent US20230029372A1, “THERAPEUTIC COMPOSITIONS AND METHODS FOR PREVENTION AND TREATMENT OF DIASTOLIC DYSFUNCTION” (AMBETEX PTY LTD, priority 2019, published 2023)
Entries after “also recorded” stand apart in the source; their conditions may differ.

Assays:
Assay type in all cases: in vivo
plasma Aβ species = test: PF06648671-High Fat Diet (HFD) treatment study: plasma Aβ species by ELISA; settings: obese mice
Procedure: PF06648671-High Fat Diet (HFD) treatment study: At 12 weeks of age, mice (n=30) were placed on a HFD with 43% of calories from fat (23.5% by weight; SF04-001 High Fat Rodent Diet Based on D12451, Specialty Feeds, Glen Forrest, Wash.). After 13 weeks of the diet period, echocardiography was performed on all mice to obtain pre-drug treatment measures of cardiac function. Mice were allocated to treatment groups so that measures of cardiac function and morphology were matched as best as possible. PF06648671 (Medkoo Biosciences) was resuspended in 100% DMSO before being diluted in a hydroxypropyl cellulose solution to give a final solution containing lmg/mL PF06648671 in 10% hydroxypropyl cellulose and 5% DMSO. A vehicle solution containing 10% hydroxypropyl cellulose and 5% DMSO was also made. Aliquots of both drug and vehicle were stored at −80° C. until required. The HFD/PF06648671 group was administered 4 mg/kg of PF06648671 per day by oral gavage, while the HFD/control group received an equivalent volume of vehicle. Echocardiography was then performed following 4 weeks of the treatment period to obtain post-drug treatment measures of cardiac function. […] Plasma Aβ species were measured using high sensitivity ELISA kits (Wako Diagnostics) and plasma that was diluted 1:10 with assay buffer.

obese mice = test: PF06648671-High Fat Diet (HFD) treatment study: echocardiography
Procedure: PF06648671-High Fat Diet (HFD) treatment study: At 12 weeks of age, mice (n=30) were placed on a HFD with 43% of calories from fat (23.5% by weight; SF04-001 High Fat Rodent Diet Based on D12451, Specialty Feeds, Glen Forrest, Wash.). After 13 weeks of the diet period, echocardiography was performed on all mice to obtain pre-drug treatment measures of cardiac function. Mice were allocated to treatment groups so that measures of cardiac function and morphology were matched as best as possible. PF06648671 (Medkoo Biosciences) was resuspended in 100% DMSO before being diluted in a hydroxypropyl cellulose solution to give a final solution containing lmg/mL PF06648671 in 10% hydroxypropyl cellulose and 5% DMSO. A vehicle solution containing 10% hydroxypropyl cellulose and 5% DMSO was also made. Aliquots of both drug and vehicle were stored at −80° C. until required. The HFD/PF06648671 group was administered 4 mg/kg of PF06648671 per day by oral gavage, while the HFD/control group received an equivalent volume of vehicle. Echocardiography was then performed following 4 weeks of the treatment period to obtain post-drug treatment measures of cardiac function. Following 5 weeks of the drug administration, mice were humanely killed via cervical dislocation and blood was immediately obtained via cardiac puncture and stored in a heparinised tube. The heart, epididymal fat pad, mesenteric fat pad, liver, quadricep, hind limb and brain were then immediately dissected. The heart was blotted prior to being weighed and all tissues were snap frozen in liquid nitrogen and stored at −80° C. Plasma Aβ species were measured using high sensitivity ELISA kits (Wako Diagnostics) and plasma that was diluted 1:10 with assay buffer.

Male C57BL6 mice [1] = test: Aβ40 administration study: plasma Aβ40 and echocardiography; settings: 1 μg/day i.p.
Procedure: Aβ40 administration study: Lyophilised recombinant Aβ40 (Millipore) and scrambled control peptide (ScrAβ40; Millipore) were resuspended in 1% NH4OH and aliquoted at 200 ng/ml in H2O and stored at −80° C. for no longer than 4 weeks. Male C57BL6 mice were obtained from the Animal Resource Centre (Perth, Wash.) at 4 weeks of age and housed with 4 mice per cage on a 12 hr light/dark cycle at a temperature of 22° C. and a constant humidity with a normal rodent diet. At 12 weeks of age, mice were grouped according to body mass and composition, determined by EchoMRI. Mice were then administered 1 μg of recombinant Aβ40 or ScrAβ40 (n=12/group per cohort) by i.p. injection once/day for 5 wks. After 4 weeks of peptide administration, cardiac function was assessed by echocardiography as follows. Mice were anaesthetised with inhalation of 1.5% isoflurane anaesthesia and echocardiography was performed using the Phillips HD15 diagnostic ultrasound system with a 15 MHz linear-array transducer by an experienced veterinarian. The velocity of blood flow through the mitral valve was analysed using Doppler mode imaging. […] Doppler imaging was also utilised to measure the velocity of blood flow through the aortic valve. The measurements were then used to calculate the ejection time, peak aortic flow and heart rate. M-mode imaging of the left ventricle was used to measure the thickness of the inter-ventricular septum (IVS), left ventricular internal diameter (LVID) and left ventricular posterior wall (LVPW) in both diastole (d) and end-systole (s) as well as systolic measures such as ejection fraction and fractional shortening. An estimation of LV mass was calculated from the m-mode imaging by using the formula (1.05[LVIDd+LVPWd+IVSd]^3−[LVIDd]^3) by Troy et al. (1972). Mice were humanely killed by cervical dislocation 1 week later. Blood was obtained immediately following by cardiac puncture and the heart, and other tissues were immediately removed. Hearts were washed in ice cold PBS and weighed prior to being snap frozen in liquid nitrogen. Plasma Aβ40 was measured using a high sensitivity ELISA kit (Wako Diagnostics) and plasma that was diluted 1:10 with assay buffer.

Male C57BL6 mice [2] = test: Aβ42 administration study: plasma Aβ42, body measures, GTT with glucose tracers, cardiac TAG, gene expression
Procedure: Male C57BL6 mice were obtained from the Animal Resource Centre (Perth, Wash.) at 4 weeks of age and housed with 4 mice per cage on a 12 hr light/dark cycle at a temperature of 22° C. and a constant humidity with a normal rodent diet. At 12 weeks of age, mice were grouped according to body mass and composition, determined by EchoMRI. […] An i.p. glucose tolerance test (GTT) was performed on the final treatment day following an overnight fast. Mice were administered 2 g/kg lean mass of glucose including radioactive glucose tracers, prepared as follows. 100 μl of 1 μCi/μl glucose analogue, [^3H]-2-deoxyglucose (2-DOG), and 500 μl of 200 μCi/mL U-^14C glucose were evaporated to dryness before redissolving the radioactive tracers in 1 mL of 50% glucose. This produced a 50% glucose solution containing 100 μCi/mL [^3H]-2-DOG and 100 μCi/mL U-^14C glucose. The tail tip of each mouse was cut off and the blood glucose concentration of a blood sample was measured using an AccuCheck II glucometer (Roche). The GTT was initiated via intraperitoneal injection of the radiolabelled glucose solution (2 g/kg body weight, 10 uCi/animal) into the overnight-fasted mice. Further blood samples were taken at 15, 30, 45, 60 and 90 minutes after the injection for the measurement of blood glucose. Blood samples (30 μl) were also taken from the tail tip at each time point and diluted in 100 μl of saline. These samples were then centrifuged and the supernatant collected. 50 μl of the supernatant was diluted in 500 μl of distilled water and then suspended in 4 mL of Ultima Gold XR scintillation fluid (Packard Bioscience). Blood radioactivity was determined at each time point by performing liquid scintillation counting on each solution using the Beckman scintillation counter (LS6000 SC). At the conclusion of the GTT, mice were killed via cervical dislocation. Blood was obtained immediately following by cardiac puncture and the heart, and other tissues were immediately removed. Hearts were washed in ice cold PBS and weighed prior to being snap frozen in liquid nitrogen. The heart (30 mg), epididymal fat pad (30 mg and quadriceps skeletal muscle (30 mg) were homogenised in 1.5 ml of distilled water. The homogenate was centrifuged at 3000 rpm for 10 min at 4° C. 400 μl of the supernatant was diluted into 1.6 mL of distilled water and then suspended in 14 mL of Ultima Gold XR scintillation fluid (Packard Bioscience). The radioactivity of each sample (from both [^3H]-2-DOG6P and [^3H]-2-DOG) was determined by liquid scintillation counting using the Beckman scintillation counter (LS6000 SC). The ^3H radioactivity was used to measure glucose uptake into each tissue.
To determine the incorporation of U-^14C glucose into triglyceride and the total triglyceride content in the heart, an extraction of triglyceride was carried out using a chloroform/methanol mixture. Samples of heart (30 mg) were hand-homogenised in 2 mL of chloroform/methanol (2:1) and the homogeniser rinsed in a further 2 mL of chloroform/methanol (2:1), and the washings being added to the original extract in 10 mL tubes. The tubes were tightly capped and mixed on a rotator overnight to maximise extraction of the triglycerides. 2 ml of 0.6% saline was then added, to facilitate the separation of the organic and aqueous phases, after which the tubes were mixed thoroughly and then centrifuged at 2000 rpm for 10 minutes. The lower chloroform phase (containing triglycerides) was collected and evaporated to dryness under nitrogen at 45° C. The dried extract was then re-dissolved in 250 μl of 100% ethanol, to redissolve the lipid and enable aliquots to dispensed for assay. The amount of U-^14C glucose clearance into the lipid fraction was measured by suspending 100 μl of the triglyceride solution in 5 mL of Ultima Gold XR scintillation fluid (Packard Bioscience), followed by scintillation counting using the Beckman scintillation counter (LS6000 SC).

Male C57BL6 mice [3] = test: Aβ42 administration study: cardiac function by echocardiography
Procedure: After 4 weeks of peptide administration, cardiac function was assessed by echocardiography as follows. Mice were anaesthetised with inhalation of 1.5% isoflurane anaesthesia and echocardiography was performed using the Phillips HD15 diagnostic ultrasound system with a 15 MHz linear-array transducer by an experienced veterinarian. The velocity of blood flow through the mitral valve was analysed using Doppler mode imaging. […] Doppler imaging was also utilised to measure the velocity of blood flow through the aortic valve. The measurements were then used to calculate the ejection time, peak aortic flow and heart rate. M-mode imaging of the left ventricle was used to measure the thickness of the inter-ventricular septum (IVS), left ventricular internal diameter (LVID) and left ventricular posterior wall (LVPW) in both diastole (d) and end-systole (s) as well as systolic measures such as ejection fraction and fractional shortening. An estimation of LV mass was calculated from the m-mode imaging by using the formula (1.05 [LVIDd+LVPWd+IVSd]^3−[LVIDd]^3) by Troy et al. (1972). Mice were humanely killed by cervical dislocation 1 week later. Blood was obtained immediately following by cardiac puncture and the heart, and other tissues were immediately removed. Hearts were washed in ice cold PBS and weighed prior to being snap frozen in liquid nitrogen.
Hearts were also collected for morphological analysis (FIG. 2).

[4] = GTT after five weeks of peptide, vs ScrAβ42

Compound: Cc1cn(-c2ccc3n(c2=O)CCN([C@@H](C)[C@@H]2CC[C@H](c4cc(F)c(Cl)cc4C(F)(F)F)O2)C3=O)cn1 [PF06648671]
- plasma Aβ40 (plasma Aβ species; 4 mg/kg per day oral gavage (FIG. 7A)): decreased
- plasma Aβ42 (plasma Aβ species; 4 mg/kg per day oral gavage (FIG. 7B), 4 mg/kg/day): decreased; also recorded: reduced
- relative change in the E:A ratio, Vehicle vs PF06648671 groups (obese mice; obese mice (FIG. 7D)): significantly different
- E:A ratio Pre-treatment to Post-treatment (obese mice; obese mice, 4 mg/kg per day oral gavage, 4 weeks (FIG. 7C)): did not change; also recorded: prevented deterioration
- E:A ratio relative to Pre-treatment values (obese mice; obese mice, 4 mg/kg per day oral gavage, 4 weeks (FIG. 7D)): 114%

Compound: Aβ40: Lyophilised recombinant Aβ40 (Millipore)
- E:A ratio (Male C57BL6 mice [1]; 5 weeks (FIG. 6B)): did not have any effect
- DT (Male C57BL6 mice [1]; 5 weeks (FIG. 6C)): did not have any effect
- ejection fraction (Male C57BL6 mice [1]; 5 weeks (FIG. 6E)): nor any effect
- IVSd (Male C57BL6 mice [1]; 5 weeks (FIG. 6F)): no effect
- LVIDd (Male C57BL6 mice [1]; 5 weeks (FIG. 6G)): no effect
- LV mass (Male C57BL6 mice [1]; 5 weeks (FIG. 6H)): no effect
- plasma Aβ40 (Male C57BL6 mice [1]; 5 weeks, vs ScrAβ40 (FIG. 6A)): significantly increased

Compound: Aβ42: Lyophilised recombinant Aβ42 (Millipore)
- increase in plasma Aβ42 (Male C57BL6 mice [2]; 1 μg/day i.p., five weeks, compared with ScrAβ42 (FIG. 1A)): approximately 3 fold
- plasma insulin throughout the GTT (Male C57BL6 mice [2]; [4]): no difference
- whole body glucose tolerance (Male C57BL6 mice [2]; [4]): no difference
- glucose incorporation into TAG (14C-glucose labelling) (Male C57BL6 mice [2]; heart, after five weeks of peptide (FIG. 1C)): greater
- total TAG (Male C57BL6 mice [2]; heart, after five weeks of peptide (FIG. 1D)): increased
- cardiac gene expression (inflammation, endoplasmic reticulum stress) (Male C57BL6 mice [2]; heart, after five weeks of peptide (FIG. 1E)): gene expression changes indicative of cardiac stress responses
- internal dimensions of the left ventricle (LVIDd) (Male C57BL6 mice [3]; Aβ42 vs ScrAβ42 (FIG. 2B)): no effect
- deceleration time (Male C57BL6 mice [3]; Aβ42 vs ScrAβ42 (FIG. 2D)): increased
- E normalised by isovolumetric relaxation time (IVRT) (Male C57BL6 mice [3]; Aβ42 vs ScrAβ42 (FIG. 2E)): no significant difference
- fractional shortening (Male C57BL6 mice [3]; Aβ42 vs ScrAβ42 (FIG. 2F)): reduced
- ejection fraction (Male C57BL6 mice [3]; Aβ42 vs ScrAβ42 (FIG. 2G)): reduced
- gross heart weight (Male C57BL6 mice [3]; Aβ42 vs ScrAβ42, five weeks (FIG. 2A)): no effect
